Test results reported in patent US20210177803A1, “NEW PHARMACEUTICAL USE FOR THE TREATMENT OF HEART FAILURE” (Novartis AG, priority 2018, published 2021).

Assays:
[1] = tested on: high-sensitivity cardiac troponin (hsTnT); conditions: compared with enalapril, 4 weeks
Method: (§1) Circulating high-sensitivity cardiac troponin (hsTn) and soluble ST2 (sST2) reflect myocardial stress in patients with heart failure (HF). Production of cyclic guanosine 3′5′ monophosphate (cGMP) in response to activation of natriuretic peptide receptors reduces cardiac afterload and preload.
(§2) Ratios of geometric means (timepoint/baseline) were determined and compared as a ratio for sacubitril/valsartan vs. enalapril.

urinary cGMP = conditions: compared with enalapril, 1 week
Method: as §1, §2

CCCCC(=O)N(Cc1ccc(-c2ccccc2-c2nn[n-]n2)cc1)[C@H](C(=O)[O-])C(C)C.CCOC(=O)[C@H](C)C[C@@H](Cc1ccc(-c2ccccc2)cc1)NC(=O)CCC(=O)[O-].[Na+].[Na+].[Na+] [LCZ696, trisodium [3((1S,3R)-1-biphenyl-4-ylmethyl-3-ethoxycarbonyl-1-butylcarbamoyl) propionate-(S)-3′-methyl-2′-(pentanoyl{2″-(tetrazol-5-ylate)biphenyl-4′-ylmethyl}amino)butyrate]hemipentahydrate]
Greater reduction in hsTnT [1]: 16%
Serial urinary cGMP (in words) (urinary cGMP): increased
